Measured values from patent US12662451B2, “Chemical compounds and uses thereof” (GLAXOSMITHKLINE INTELLECTUAL PROPERTY (NO.4) LIMITED, priority 2023, dated 2026).
Read-outs that look alike come from different tables or passages of the source.

Assays:
[1] = molecular target: T1, recombinant full-length WRN protein (1-1432) (Homo sapiens, UniProt Q14191); experiment: WRN unwinding activity, fluorogenic 384-well assay (Example A); type: biochemical; conditions: WRN unwinding activity, 4 hr; Table 2; read-out: 4 hr UNW pIC50 (converted)
T1 construct: recombinant full-length WRN protein (1-1432)
In short: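 Read-out is end-point unwinding of a fluorophore/quencher duplex (ex 525, em 598 nm) after 60 min with 200 μM ATP and 12 nM DNA (2× stocks), EDTA stop. Compound first sat 4 h with 200 pM WRN (2× stock) in pH 8.0 Tris buffer; four-parameter fit gives pIC50.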

[2] = Cell culture media unbound percentage and stability by rapid equilibrium dialysis (Example C); type: in vitro ADME; conditions: bovine, cell assay medium (RPMI-1640 with 10% fetal bovine serum), pH 7.4, rapid equilibrium dialysis, 4 hours at 37° C., read-out: Cell Culture Media Binding (% unbound)
In short: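 Percent unbound in cell assay medium came from the LC-MS/MS receiver:donor peak area ratio, with stability taken as the 240 min over 0 min ratio. Set-up: 1 μM nominal compound in medium dialysed against pH 7.4 PBS (100 mM phosphate, 150 mM NaCl), 4 h, 37° C, shaken, in triplicate.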

[3] = tested on: SW48 human colorectal cancer cells; experiment: Calculated free drug potency in SW48 cell assay, corrected with media free fraction (Example C); type: cell-based; conditions: Homo sapiens, SW48, SW48 pCC50 corrected with measured free fraction in cell assay media
In short: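 Free drug potency derives from correcting SW48 assay concentrations with the unbound fraction in medium. That fraction came from RED against pH 7.4 PBS, 1 μM nominal compound, 4 h at 37 °C, quantified by LC-MS/MS peak area ratios at T=240 versus T=0 min.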

[4] = tested on: SW48 human colorectal cancer cells (MSI-H cancer cells); experiment: SW48 cell viability, CellTiter-Glo, 120 hours (Example B); conditions: Homo sapiens
Procedure: SW48 human colorectal cancer cells (MSI-H cancer cells) were obtained from the American Type Culture Collection and maintained in growth medium composed of RPMI-1640 supplemented with 10% fetal bovine serum. Cells were maintained in a humidified 5% CO2 incubator at 37° C. Cell dissociation was conducted using TrypLE Select to detach cells from culture flasks. Following dissociation, cells were centrifuged briefly and resuspended in assay medium RPMI-1640+10% fetal bovine serum. Black 384-well assay plates were prepared from source plates of DMSO and compounds dissolved in DMSO prior to cell dispensation. These source plates were prepared in eleven point, 3-fold serial dilutions from 10 mM stocks stored at 4° C. Compounds and DMSO controls were dispensed into assay plates at 150 nanoliters per well from source plates using Labcyte Echo 555 or Echo 655T dispensers with Column 6 and Column 18 containing DMSO only. Cells were then seeded into prepared assay plates in 50 microliters assay medium at 250 cells per well into Columns 1 thru 17 and Columns 19-24. Assay medium without cells was added to column 18 to serve as a surrogate for 100% cell cytotoxicity. Following incubation for 120 hours in a humidified 5% CO2 incubator at 37° C., cellular ATP concentration of each well was measured and used as a surrogate of cell viability. This was performed by adding 50 microliters of CellTiter-Glo reagent to each well followed by a 10-minute incubation at room temperature. Luminescence was measured on a Synergy Neo or Synergy Neo2 multimode plate reader. Compound cytotoxic response (% C) was normalized to the robust means of column 6 (Control 1, 0% Cytotoxicity) and column 18 (Control 2, 100% Cytotoxicity) and normalized % cytotoxicity (% C) calculated. % C=100−100*((Compound−Control 2)/(Control1−Control2)). These normalized data were then used to determine a 50% cytotoxic response (CC50) using 4-parameter logistic curve model 201 in Activity Base XE:
[formula] • where A=minimum asymptote (% cytotoxicity), B=maximum asymptote (% cytotoxicity), C=Log CC50 (pCC50), D=Hill slope, and x=[inhibitor], (M).

[5] = SW48, 120 h, read-out: SW48 pCC50, SW48 cell viability, 120 hours incubation (converted), Table 2
[6] = SW48, read-out: SW48 pCC50, measured potency from Example B, as repeated in Table 3 (converted)

T1 sequence (Q14191 whole entry): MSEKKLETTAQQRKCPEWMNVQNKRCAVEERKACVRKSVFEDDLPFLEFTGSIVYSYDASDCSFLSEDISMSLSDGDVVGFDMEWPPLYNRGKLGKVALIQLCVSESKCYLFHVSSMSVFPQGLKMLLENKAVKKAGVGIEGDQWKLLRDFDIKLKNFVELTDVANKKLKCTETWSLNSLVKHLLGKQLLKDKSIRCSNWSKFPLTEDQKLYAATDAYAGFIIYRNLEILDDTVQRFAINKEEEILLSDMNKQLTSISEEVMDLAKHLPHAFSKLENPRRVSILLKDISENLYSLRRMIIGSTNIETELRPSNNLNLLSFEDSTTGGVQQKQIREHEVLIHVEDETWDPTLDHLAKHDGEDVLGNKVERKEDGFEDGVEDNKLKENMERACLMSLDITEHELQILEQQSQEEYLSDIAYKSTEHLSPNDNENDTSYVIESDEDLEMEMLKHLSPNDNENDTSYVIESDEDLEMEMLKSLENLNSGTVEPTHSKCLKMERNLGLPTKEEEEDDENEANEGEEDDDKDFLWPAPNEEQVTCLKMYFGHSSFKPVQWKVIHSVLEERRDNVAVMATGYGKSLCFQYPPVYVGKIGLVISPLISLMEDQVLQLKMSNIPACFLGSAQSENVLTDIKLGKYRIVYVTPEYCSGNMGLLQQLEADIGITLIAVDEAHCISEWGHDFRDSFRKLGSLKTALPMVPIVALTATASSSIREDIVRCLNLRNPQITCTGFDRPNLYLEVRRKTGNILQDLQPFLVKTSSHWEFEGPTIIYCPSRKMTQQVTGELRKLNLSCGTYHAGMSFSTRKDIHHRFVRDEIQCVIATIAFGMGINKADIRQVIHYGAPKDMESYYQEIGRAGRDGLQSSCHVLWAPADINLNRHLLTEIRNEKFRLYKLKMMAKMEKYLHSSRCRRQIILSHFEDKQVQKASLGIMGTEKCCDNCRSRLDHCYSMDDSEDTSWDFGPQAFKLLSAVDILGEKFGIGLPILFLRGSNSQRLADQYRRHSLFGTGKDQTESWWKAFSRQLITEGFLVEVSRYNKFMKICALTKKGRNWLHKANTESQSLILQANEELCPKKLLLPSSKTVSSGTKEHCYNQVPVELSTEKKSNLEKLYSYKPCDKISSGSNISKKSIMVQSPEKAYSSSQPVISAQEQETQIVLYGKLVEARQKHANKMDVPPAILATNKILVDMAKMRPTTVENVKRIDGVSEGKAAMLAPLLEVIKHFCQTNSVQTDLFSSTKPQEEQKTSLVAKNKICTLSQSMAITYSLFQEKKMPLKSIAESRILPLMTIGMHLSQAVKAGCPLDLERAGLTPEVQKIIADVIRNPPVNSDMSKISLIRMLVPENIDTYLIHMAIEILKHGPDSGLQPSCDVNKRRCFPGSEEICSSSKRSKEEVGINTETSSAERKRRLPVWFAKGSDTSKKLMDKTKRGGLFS

| SMILES | IC50 [1] | fraction unbound at 4 h, 1 µM [2] | CC50 [3] | CC50 [4, 5] | CC50 [4, 6] |
| --- | --- | --- | --- | --- | --- |
| CN(c1ccc([C@H]2CCC[C@@H](C(=O)Nc3ccc(C(F)(F)F)cc3F)[C@@H]2C(=O)O)cc1)S(=O)(=O)c1cccc(C2CNC(=O)C2)c1 (stereo partly drawn) [Example 113, (1R,2R,6S)-2-((2-fluoro-4-(trifluoromethyl)phenyl)carbamoyl)-6-(4-((N-methyl-3-(5-oxopyrrolidin-3-yl)phenyl)sulfonamido)phenyl)cyclohexane-1-carboxylic acid] | 0.00158 µM | 0.0899 | 0.0562 µM | 0.631 µM | 0.631 µM |
| O=C(O)[C@@H]1[C@@H](c2ccc(-c3cnsc3)cc2)CCC[C@H]1C(=O)Nc1ccc(C(F)(F)F)cc1F [Example 16, (1R,2R,6S)-2-((2-fluoro-4-(trifluoromethyl)phenyl)carbamoyl)-6-(4-(isothiazol-4-yl)phenyl)cyclohexane-1-carboxylic acid] | 0.00398 µM | 0.0499 | 0.2 µM | 3.98 µM | 3.98 µM |
| CN(c1ccc([C@H]2CCC[C@@H](C(=O)Nc3ccc(C(F)(F)F)cc3F)[C@@H]2C(=O)O)cc1)S(=O)(=O)c1ccc2c(ccn2C)c1 [Example 107, (1R,2S,6R)-2-(4-((N, 1-dimethyl-1H-indole)-5-sulfonamido)phenyl)-6-((2-fluoro-4-(trifluoromethyl)phenyl)carbamoyl)cyclohexane-1-carboxylic acid] | 0.00501 µM | 0.0245 | 0.0195 µM | 0.794 µM | 0.794 µM |
| Cc1nc2cc(S(=O)(=O)N(C)c3ccc([C@@H]4C[C@@H](N5CCC[C@@H](F)C5)C[C@H](C(=O)Nc5ccc(C(F)(F)F)cc5F)[C@H]4C(=O)O)cc3)ccc2n1C (stereo in doubt) [Example 346, rel-(1R*,2R*,4S*,6S*)-2-((2-fluoro-4-(trifluoromethyl)phenyl)carbamoyl)-4-((R)-3-fluoropiperidin-1-yl)-6-(4-((N,1,2-trimethyl-1H-benzo[d]imidazole)-5-sulfonamido)phenyl)cyclohexane-1-carboxylic acid] | 3.98 µM | 0.419 | 4.17 µM | 10 µM | – |

The next lines start with results.

| IC50 [1] | fraction unbound at 4 h, 1 µM [2] | SMILES | CC50 [3] | CC50 [4, 5] | CC50 [4, 6] |
| --- | --- | --- | --- | --- | --- |
| 0.00126 µM | 0.129 | CO[C@@H]1C[C@H](C(=O)Nc2ccc(C(F)(F)F)cc2F)[C@@H](C(=O)O)[C@H](c2ccc(N(C)S(=O)(=O)c3ccc4c(c3)nc(C)n4C)cc2)C1 (relative stereo) [Example 148, rel-(1R,2R,4R,6S)-2-((2-fluoro-4-(trifluoromethyl)phenyl)carbamoyl)-4-methoxy-6-(4-((N,1,2-trimethyl-1H-benzo[d]imidazole)-5-sulfonamido)phenyl)cyclohexane-1-carboxylic acid] | 0.0257 µM | 0.2 µM | 0.2 µM |
| 0.00158 µM | 0.16 | Cc1nc2cc(S(=O)(=O)N(C)c3ccc([C@H]4C[C@@H](O[C@@H]5CCOC5)C[C@@H](C(=O)Nc5ccc(C(F)(F)F)cc5F)[C@@H]4C(=O)O)cc3)ccc2n1C (relative stereo) [Example 321, (1R*,2R*,4R*,6S*)-2-((2-fluoro-4-(trifluoromethyl)phenyl)carbamoyl)-4-(((R)-tetrahydrofuran-3-yl)oxy)-6-(4-((N,1,2-trimethyl-1H-benzo[d]imidazole)-5-sulfonamido)phenyl)cyclohexane-1-carboxylic acid] | 0.0316 µM | 0.2 µM | 0.2 µM |
| 0.00158 µM | 0.0527 | Cc1nc2cc(S(=O)(=O)N(C)c3ccc([C@@H]4C[C@H](N5CC6(F)CC5C6)C[C@H](C(=O)Nc5ccc(C(F)(F)F)cc5F)[C@H]4C(=O)O)cc3)ccc2n1C (relative stereo) [Example 397, rel-(1R,2R,4R,6S)-2-((2-fluoro-4-(trifluoromethyl)phenyl)carbamoyl)-4-(4-fluoro-2-azabicyclo[2.1.1]hexan-2-yl)-6-(4-((N,1,2-trimethyl-1H-benzo[d]imidazole)-5-sulfonamido)phenyl)cyclohexane-1-carboxylic acid] | 0.0166 µM | 0.316 µM | 0.316 µM |
